Assay [1] relates to SCC-9 tumor cells. Nature of the assay: Cellular marker expression by flow cytometry. In kind it is cell-based. The protocol:
(§1) Figure 6 Analysis of marker expression in tongue squamous cell carcinoma tumor cells. The expression of markers was quantified using flow cytometry after 24 h of treatment with the AC-AFPK-IsCT1 peptide at its IC50 value determined for each cell line. (a) Representative density plots display the distribution of cells with fluorescence intensity; (b) marker expression in SCC-9 tumor cells; (c) marker expression in SCC-25 tumor cells. Bar graphs present protein expression levels as the mean ± SD from three independent experiments. Values are expressed as the mean ± SD from three independent experiments. Statistical differences were determined using ANOVA and Tukey–Kramer multiple comparison tests. * p < 0.05 and *** p < 0.001 denote significance. ns = not significant.
(§2) Tumor cells SSC-9 and SSC-25, both treated with the peptides at their IC50 concentrations for 24 h and control groups (10^5 cells/mL), were incubated at 4 °C for 1 h with 1 μg of specific antibodies conjugated with Alexa Fluor™ 488. Various markers associated with cell death and cell cycle progression, such as caspase 3 and 8, cyclin D1, PCNA, p53, and TNF-α conjugated with Alexa Fluor™ 488, were used as indicated. For intracellular markers, TritonX 0.1% was used for 30 min at room temperature before antibody labeling. Following centrifugation at 1500 rpm and washing with PBS, the supernatant was discarded and the pellet was resuspended in 200 μL of FACS buffer. The reading and analysis of receptor expression on the cell surface of tumor cells were carried out using a FACScanto flow cytometer (BD) with fluorescence intensity FL1-H for the number of events (10,000 events), and the dot plots were acquired and analyzed using FCS Express software.

Assay [2] deals with SCC-25 tumor cells. Nature of the assay: Cellular marker expression by flow cytometry. In kind it is cell-based. The protocol: as §1, §2
On the technique in general: Flow cytometry measures light scatter and fluorescence of single cells or particles in a stream.

For assay [3], the system named is normal FN1 cells. Put plainly: Mitochondrial membrane electrical potential (ΔΨm) by flow cytometry. The class given is cell-based, human. Conditions: 24 h, IsCT-P and AC-AFPK-IsCT1 at IC50, others 100 µM, MitoRed, compared to control cells, mean ± SD of three independent experiments. The protocol: Figure 4 Analysis of mitochondrial electrical potential (ΔΨm) using flow cytometry following a 24 h treatment with synthetic analogs of IsCT1 peptides. The indicated cells were treated at the IC50 values obtained for the IsCT-P and AC-AFPK-IsCT1 peptides and at a concentration of 100 µM for the other peptides. (a) Representative histograms of cell distribution according to ΔΨm; (b) bar graph showing ΔΨm expressed as the mean ± SD of three independent experiments of SCC-9 tumor cells; (c) bar graph showing ΔΨm expressed as the mean ± SD of three independent experiments of SCC-25 tumor cells; (d) bar graph showing ΔΨm expressed as the mean ± SD of three independent experiments of normal FN1 cells; (e) bar graph showing ΔΨm expressed as the mean ± SD of three independent experiments of normal J774 cells. Statistical differences were obtained using ANOVA and Tukey–Kramer multiple comparison tests. * p < 0.05, ** p < 0.01, and *** p < 0.001 denote significance. ns = not significant.
Tumor (SSC-9 and SSC-25) and normal cells (FN1 and J-774) were subjected to treatment for a period of 24 h at the peptides’ IC50 concentrations. After treatment, the cells were trypsinized, centrifuged at 1200 rpm for 5 min, the supernatant was discarded, and the cells were resuspended in complete medium containing MitoRed™ (Sigma-Aldrich, USA) (200 nM/L). […]

Assay [4] concerns normal FN1 cells. Nature of the assay: CFSE-DA proliferation assay (flow cytometry). The class given is cell-based, human. Conditions: 24 h, IsCT-P and AC-AFPK-IsCT1 at IC50, other peptides at 100 µM, mean ± SD of three independent experiments. The protocol:
Figure 2 Assessment of the cellular proliferative index was conducted using flow cytometry following a 24 h treatment with synthetic analogs of the IsCT1 peptide. The treatments were performed using the IC50 values obtained for the IsCT-P and AC-AFPK-IsCT1 peptides and at a concentration of 100 µM for the other peptides. (a) Representative histograms of the proliferative index were analyzed using WinMDI 5.0 software. Each color in the histogram represents a new cell population. (b) Bar graphs represent the mean ± SD of the proliferative index for SCC-9 tumor cells derived from three independent experiments. (c) Bar graphs display the mean ± SD of the proliferative index for SCC-25 tumor cells based on three independent experiments. (d) Bar graphs represent the mean ± SD of the proliferative index for normal FN1 cells from three independent experiments. […] Statistical differences were determined using ANOVA and Tukey–Kramer multiple comparison tests. […]
Tumor (SSC-9 and SSC-25) and normal cells (FN1 and J-774) were plated in 24-well plates at a density of 10^5 cells/mL for 24 h. […] Readings were performed on a FACScanto flow cytometer (BD, Franklin Lakes, NJ, USA) with the number of events set to 10,000 events, and histograms were acquired and analyzed using ModFit LT 5.0 software.

Setting [5] is: 24 h at IC50, compared to control cells, mean ± SD of three independent experiments.
The mark [6] stands for this setting: 24 h at IC50, mean ± SD of three independent experiments.

Regarding Ac-ALGKFWPKIKSLF-NH2 [AC-AFPK-IsCT1], the “change in Cyclin-D1 expression” value in assay [1] (24 h at IC50) is reported as “No significant changes”. Besides, in assay [1] (setting [5]), the “increase in caspase 3 expression” value is 67 ± 4.9%, the “increase in caspase 8 expression” value came out at 61.6 ± 3%, the “increase in cells expressing TNF-α” value was found to be 69.2 ± 2.6% and the “increase in cells expressing p53” value came out at 60.7 ± 1.6%. Besides, in assay [1] (setting [5]), the “reduction in PCNA expression” value was 21.4 ± 0.4%. For the same substance, in assay [2] (setting [5]), the “decrease in Cyclin D1 expression” value was 15 ± 1.3% and the “decrease in PCNA expression” value is 22.8 ± 2.5%. In assay [2] (setting [6]), the “increase in TNF-α-expressing cells” value is 85.6 ± 8.4%, the “increase in caspase 3 expression” value is 86.2 ± 7%, the “increase in caspase 8 expression” value was 82.3 ± 5.5% and the “increase in p53-expressing cells” value stood at 83.5 ± 1.8%. Also, the “decrease in ΔΨm” value in assay [3] was “No changes”.
In the case of H-ILKKIWKPIKKLF-NH2 [IsCT-P], in assay [4], the “reduction in the proliferative index” value is recorded as 37.6 ± 3.9%.

The values above are taken from PMC11478212, “Antitumoral and Antiproliferative Potential of Synthetic Derivatives of Scorpion Peptide IsCT1 in an Oral Cavity Squamous Carcinoma Model” (Molecules, 2024).
